Like-named read-outs stand apart in the source and are kept apart here.
Experiments:
Format in all cases: physicochemical
[1] = Hygroscopicity (statement, no method given)
[2] = Water loss as a function of temperature by TG/DTA (loss on drying, thermal transitions); details: for LOD (thermal transitions): DTA signals, temperature at which the water is lost; for Loss On Drying (LOD) (%): total water loss by thermogravimetry, rt-295° C., 10°/min
Text: (ii) Thermogravimetric/Differential Thermal Analysis (TG/DTA) […]
The data listed below show the total water loss (LOD by thermogravimetry (TG)) and thermal transitions (DTA signals) show the temperature at which the water is lost.

[3] = Humidity microbalance analysis (VTI), moisture sorption at 25° C.; details: for hygroscopicity / moisture uptake in words: variations in humidity
Text: Thus, Modification C retains a stable weight from 0% relative humidity to 80% relative humidity while Modification A loses water with decreasing humidity and gains moisture with increasing humidity. With Modification C, a re-hydration step and the possible variability in water content between batches may thus be eliminated.
Modification N is particularly suitable for industrial scale-up. It is a crystalline anhydrous form.
Modification O is particularly suitable for industrial scale-up. It is a crystalline anhydrous form.

[4] = Physical stability of the crystalline forms (relative humidity, absorption-desorption isotherm FIG. 1, temperature, storage); details: for physical stability (change into another form): storage / ambient conditions
[5] = Dynamic vapor absorption experiment; details: dried product of Example 20
Method: 2.0 g of Modification A, 17 mL of THF and 17 mL of 200-proof ethanol are added to a jacketed 100-mL glass reactor equipped with an overhead stirrer. The mixture is heated to approximately 50° C. with vigorous agitation to obtain a clear solution. To the warm solution, 3 mL of heptanes are added. In a small glass vial, 0.02 g of seed particles (Modification C, prepared from a previous batch) are added to 1 mL of heptanes, and the slurry is sonicated for approximately 1 minute. The seed slurry is then added to the warm solution to obtain a turbid solution at 50° C. To the turbid solution, 35 mL of heptanes are added as follows. First, 5 mL of heptanes are added over a 30-min period, followed by 75-min hold. Subsequently, an additional 30 m L of heptanes are added over 1.5 hours. The resulting thick slurry is cooled to 10° C. in 50 minutes. The slurry is filtered by vacuum, and the wet cake is washed with 25 mL of anhydrous THF and dried at 65° C. and 10 mbar. […] Based on Karl Fisher analysis, the dried solid contained 3.6% water.

[6] = Vacuum thermogravimetric analysis (VTGA): drying and re-exposure to ambient conditions; details: for hygroscopicity in words: concluded from VTGA re-exposure; for time until sample mass decreases to a steady value (drying complete): vacuum 50 mbar, 50° C., wet solid
Method: The wet solid obtained by filtering the crystallization slurry is placed in a cup placed in a cell (i.e., a small chamber) and suspended form a microbalance; vacuum is applied to the cell, and the chamber is subsequently heated. The sample mass is monitored and recorded continuously, indicating when the sample drying is complete and if moisture uptake occurs when the cell is opened to the ambient atmosphere.
1.1149 g of Modification A solid, 0.089 g of distilled water and 10 mL of acetonitrile are added to a glass vial. The mixture is stirred vigorously at 20° C. for 18 hours. The mixture is filtered using vacuum and the wet cake is dried in a VTGA cell at approximately 50° C. and 20 mbar for approximately 5 hours.
1.2137 g of Modification A solids and 15 mL of anhydrous THF, 99.9%, are added to a glass vial. The mixture is heated to 45° C. with vigorous stirring. After slurrying at 45° C. for approximately 19 hours, the sample is filtered by vacuum and the wet cake is dried using the VTGA at approximately 50° C. and 20 mbar for approximately 5 hours.

[7] = Solubility in common process solvents

| SMILES | Mass uptake (% water absorbed) ([3]; 0 % residual humidity) | Mass uptake (% water absorbed) ([3]; 10 % residual humidity) | Mass uptake (% water absorbed) ([3]; 50 % residual humidity) | Mass uptake (% water absorbed) ([3]; 60 % residual humidity) | Mass uptake (% water absorbed) ([3]; 70 % residual humidity) | Mass uptake (% water absorbed) ([3]; 79 % residual humidity) | Mass uptake (% water absorbed) ([3]; 90 % residual humidity) | Mass uptake (% water absorbed) ([3]; 95 % residual humidity) | hygroscopicity / moisture uptake in words [3] | physical stability (change into another form) [4] | Loss On Drying (LOD) (%) [2] | time until sample mass decreases to a steady value (drying complete) [6] | further results |
| --- | --- | --- | --- | --- | --- | --- | --- | --- | --- | --- | --- | --- | --- |
| O=C([O-])C[C@H]1CC[C@H](c2ccc(-c3ccc(Nc4ccc(C(F)(F)F)nc4)cn3)cc2)CC1.[Na+] [Modification K, sodium salt of (4-{4-[5-(6-trifluoromethyl-pyridin-3-ylamino)-pyridin-2-yl]-phenyl}-cyclohexyl)-acetic acid] | – | – | – | – | – | – | – | – | – | – | – | – | hygroscopicity in words [1]: low hygroscopicity; LOD (thermal transitions) ([2]; listed as K): 134.5 °C; Loss On Drying (LOD) (%) ([2]; listed as K): 2.4% |
| O=C([O-])C[C@H]1CC[C@H](c2ccc(-c3ccc(Nc4ccc(C(F)(F)F)nc4)cn3)cc2)CC1.[Na+] [Modification C, sodium salt of (4-{4-[5-(6-trifluoromethyl-pyridin-3-ylamino)-pyridin-2-yl]-phenyl}-cyclohexyl)-acetic acid] | 0.0% | 0.0% | 0.1% | 0.2% | 0.4% | 0.8% | 12.0% | 15.6% | does not lose or gain moisture | does not change into another form under ambient conditions | 2.8% | less than 1 hours | relative humidity at which moisture gain starts / becomes significant ([3]; listed as Form C): > 80 % relative humidity; temperature above which water is lost ([4]; heating): over 85 °C; hygroscopicity in words [5]: much lower hygroscopicity than Modification A; mass uptake of moisture ([5]; from 0 to 80% relative humidity): 0.3%; LOD (thermal transitions) ([2]; listed as C): 126 °C; LOD (thermal transitions) ([2]; listed as modification C): 126 °C; mass change upon opening the cell to the ambient environment ([6]; Example 17, after drying at 50° C. and 20 mbar, 30%-56% relative humidity): no mass change occurs; mass gain when the dried solid was exposed to air ([6]; Example 18, approximately 15 hours at 20° C. and 43-59% relative humidity): No mass gain was observed; sample mass change upon opening the cell ([6]; after drying, 1000 mbar, ambient temperature): the sample mass does not change; hygroscopicity in words ([6]; listed as Form C): not hygroscopic |
| O=C([O-])C[C@H]1CC[C@H](c2ccc(-c3ccc(Nc4ccc(C(F)(F)F)nc4)cn3)cc2)CC1.[Na+] [Modification A, sodium salt of (4-{4-[5-(6-trifluoromethyl-pyridin-3-ylamino)-pyridin-2-yl]-phenyl}-cyclohexyl)-acetic acid] | 0.0% | 3.9% | 12.0% | 12.0% | 17.3% | 17.5% | 17.4% | 17.1% | takes up much more moisture compared to Modification C | converts to another form in samples that have not been refrigerated | 9.1% | about 18 hours | relative humidity at which moisture gain starts / becomes significant [3]: 10 % relative humidity; hygroscopicity in words ([4]; sorption profile FIG. 1): very hygroscopic; solubility in common process solvents [7]: relatively low; total mass gain due to moisture uptake upon opening the cell ([6]; after drying, 1000 mbar, ambient temperature, plateau at ca. 90 hours): 10.4%; hygroscopicity in words [6]: highly hygroscopic |
